Data taken from patent US6737383B1, “Herbicidal oxadiazolidines” (priority 1999, dated 2004).

Key:
surinam grass = test: Test B pre/postemergence surinam grass; format: in vivo, Brachiaria decumbens
Outline: (§1)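 Test chemicals in a non-phytotoxic solvent mixture with surfactant were sprayed preemergence onto planted seeds and postemergence onto plants 2 to 18 cm tall (1- to 4-leaf stage). After twelve to sixteen days in a greenhouse, injury was visually rated against untreated controls from 0 (no effect) to 10 (complete control).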

soybean = test: Test B pre/postemergence soybean; format: in vivo, Glycine max
Outline: as §1

morningglory = test: Test B pre/postemergence morningglory; format: in vivo, Ipomoea hederacea
Outline: as §1

wild oat = test: Test B pre/postemergence wild oat; format: in vivo, Avena fatua
Outline: as §1

rape = test: Test B pre/postemergence rape; format: in vivo, Brassica napus
Outline: as §1

duck salad = test: Test B flood test duck salad; format: in vivo, Heteranthera limosa
Outline: (§2)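 Each value is a visual injury score relative to controls, with 10 meaning complete control and 0 no effect. Evaluation took place twelve to sixteen days after the 2-leaf-stage plants were treated and kept in the greenhouse.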

giant foxtail = test: Test B pre/postemergence giant foxtail; format: in vivo, Setaria faberii
Outline: as §1

blackgrass = test: Test B pre/postemergence blackgrass; format: in vivo, Alopecurus myosuroides
Outline: as §1

rice = test: Test B flood test rice; format: in vivo, Oryza sativa
Outline: as §2

purple nutsedge = test: Test B pre/postemergence purple nutsedge; format: in vivo, Cyperus rotundus
Outline: as §1

velvetleaf = test: Test B pre/postemergence velvetleaf; format: in vivo, Abutilon theophrasti
Outline: as §1

smallflower flatsedge = test: Test B flood test smallflower flatsedge; format: in vivo, Cyperus difformis
Outline: as §2

bedstraw = test: Test B pre/postemergence bedstraw; format: in vivo, Galium aparine
Outline: as §1

corn = test: Test B pre/postemergence corn; format: in vivo, Zea mays
Outline: as §1

crabgrass = test: Test B pre/postemergence crabgrass; format: in vivo, Digitaria sanguinalis
Outline: as §1

wheat = test: Test B pre/postemergence wheat; format: in vivo, Triticum aestivum
Outline: as §1

[1] = Postemergence, Rate 250 g/ha, scale 0 to 10, 0 no effect, 10 complete control
[2] = Postemergence, Rate 1000 g/ha, scale 0 to 10 (0 no effect, 10 complete control)
[3] = Preemergence, Rate 125 g/ha, scale 0 to 10 (0 no effect, 10 complete control)
[4] = Preemergence, Rate 250 g/ha, scale of 0 to 10 where 0 is no effect and 10 is complete control
[5] = Preemergence, Rate 500 g/ha, scale 0 (no effect) to 10 (complete control)
[6] = Rate 125 g/ha, Postemergence, scale 0 to 10, 0 no effect, 10 complete control
[7] = Rate 500 g/ha, Postemergence, 0 to 10 scale (0 no effect, 10 complete control)
[8] = Rate 1000 g/ha, Preemergence, scale 0 to 10 (0 no effect, 10 complete control)
[9] = Rate 125 g/ha, Postemergence section (flood test species), scale 0 to 10, 0 no effect, 10 complete control
[10] = Rate 500 g/ha, Postemergence section of Table B, 0 to 10 scale (0 no effect, 10 complete control)
[11] = flood test, listed under Postemergence, Rate 250 g/ha, scale 0 to 10, 0 no effect, 10 complete control

SMILES: CCN(CC)C(=O)n1oc(=O)n(-c2ccc(F)cc2)c1=O [Compound 3]
- B. signalgrass plant response rating (surinam grass; [1]): 0
- B. signalgrass plant response rating (surinam grass; [2]): 0
- Plant response rating, B. signalgrass (surinam grass; [3]): 0
- Plant response rating, B. signalgrass (surinam grass; [4]): 0
- B. signalgrass plant response rating (surinam grass; [5]): 0
- B. signalgrass plant response rating (surinam grass; [6]): 0
- B. signalgrass plant response rating (surinam grass; [7]): 0
- Plant response rating, B. signalgrass (surinam grass; [8]): 0
- Soybean plant response rating (soybean; [1]): 1
- Soybean plant response rating (soybean; [2]): 2
- Plant response rating, Soybean (soybean; [3]): 0
- Plant response rating, Soybean (soybean; [4]): 0
- Soybean plant response rating (soybean; [5]): 0
- Soybean plant response rating (soybean; [6]): 0
- Plant response rating, Soybean (soybean; [8]): 0
- Morningglory plant response rating (morningglory; [1]): 0
- Morningglory plant response rating (morningglory; [2]): 0
- Plant response rating, Morningglory (morningglory; [3]): 0
- Plant response rating, Morningglory (morningglory; [4]): 0
- Morningglory plant response rating (morningglory; [5]): 0
- Morningglory plant response rating (morningglory; [6]): 0
- Morningglory plant response rating (morningglory; [7]): 0
- Plant response rating, Morningglory (morningglory; [8]): 0
- Wild oats plant response rating (wild oat; [1]): 0
- Wild oats plant response rating (wild oat; [2]): 0
- Plant response rating, Wild oats (wild oat; [3]): 0
- Plant response rating, Wild oats (wild oat; [4]): 0
- Wild oats plant response rating (wild oat; [5]): 0
- Wild oats plant response rating (wild oat; [6]): 0
- Plant response rating, Wild oats (wild oat; [8]): 0
- Rape plant response rating (rape; [1]): 0
- Rape plant response rating (rape; [2]): 0
- Plant response rating, Rape (rape; [3]): 0
- Plant response rating, Rape (rape; [4]): 0
- Rape plant response rating (rape; [5]): 0
- Rape plant response rating (rape; [6]): 0
- Rape plant response rating (rape; [7]): 0
- Plant response rating, Rape (rape; [8]): 0
- Ducksalad plant response rating (duck salad; [2]): 0
- Ducksalad plant response rating (duck salad; [9]): 0
- Ducksalad plant response rating (duck salad; [10]): 0
- Ducksalad plant response rating (duck salad; [11]): 0
- Giant foxtail plant response rating (giant foxtail; [1]): 3
- Giant foxtail plant response rating (giant foxtail; [2]): 8
- Plant response rating, Giant foxtail (giant foxtail; [3]): 0
- Plant response rating, Giant foxtail (giant foxtail; [4]): 1
- Giant foxtail plant response rating (giant foxtail; [5]): 8
- Giant foxtail plant response rating (giant foxtail; [6]): 0
- Giant foxtail plant response rating (giant foxtail; [7]): 7
- Plant response rating, Giant foxtail (giant foxtail; [8]): 10
- Blackgrass plant response rating (blackgrass; [1]): 0
- Blackgrass plant response rating (blackgrass; [2]): 3
- Plant response rating, Blackgrass (blackgrass; [3]): 0
- Plant response rating, Blackgrass (blackgrass; [4]): 0
- Blackgrass plant response rating (blackgrass; [5]): 0
- Blackgrass plant response rating (blackgrass; [6]): 0
- Blackgrass plant response rating (blackgrass; [7]): 0
- Plant response rating, Blackgrass (blackgrass; [8]): 0
- Rice plant response rating (rice; [2]): 0
- Rice plant response rating (rice; [9]): 0
- Rice plant response rating (rice; [10]): 0
- Rice plant response rating (rice; [11]): 0
- Nutsedge plant response rating (purple nutsedge; [1]): 0
- Nutsedge plant response rating (purple nutsedge; [2]): 0
- Nutsedge plant response rating (purple nutsedge; [6]): 0
- Nutsedge plant response rating (purple nutsedge; [7]): 0
- Velvetleaf plant response rating (velvetleaf; [1]): 0
- Velvetleaf plant response rating (velvetleaf; [2]): 0
- Plant response rating, Velvetleaf (velvetleaf; [3]): 0
- Plant response rating, Velvetleaf (velvetleaf; [4]): 0
- Velvetleaf plant response rating (velvetleaf; [5]): 0
- Velvetleaf plant response rating (velvetleaf; [6]): 0
- Plant response rating, Velvetleaf (velvetleaf; [8]): 0
- S. Flatsedge plant response rating (smallflower flatsedge; [2]): 0
- S. Flatsedge plant response rating (smallflower flatsedge; [9]): 0
- S. Flatsedge plant response rating (smallflower flatsedge; [11]): 0
- Bedstraw plant response rating (bedstraw; [1]): 0
- Bedstraw plant response rating (bedstraw; [2]): 0
- Plant response rating, Bedstraw (bedstraw; [3]): 0
- Plant response rating, Bedstraw (bedstraw; [4]): 0
- Bedstraw plant response rating (bedstraw; [5]): 0
- Bedstraw plant response rating (bedstraw; [6]): 0
- Bedstraw plant response rating (bedstraw; [7]): 0
- Plant response rating, Bedstraw (bedstraw; [8]): 0
- Corn plant response rating (corn; [1]): 0
- Corn plant response rating (corn; [2]): 0
- Plant response rating, Corn (corn; [3]): 0
- Plant response rating, Corn (corn; [4]): 0
- Corn plant response rating (corn; [5]): 0
- Corn plant response rating (corn; [6]): 0
- Corn plant response rating (corn; [7]): 0
- Plant response rating, Corn (corn; [8]): 0
- Crabgrass plant response rating (crabgrass; [1]): 0
- Crabgrass plant response rating (crabgrass; [2]): 7
- Plant response rating, Crabgrass (crabgrass; [3]): 0
- Plant response rating, Crabgrass (crabgrass; [4]): 0
- Crabgrass plant response rating (crabgrass; [5]): 0
- Crabgrass plant response rating (crabgrass; [6]): 0
- Crabgrass plant response rating (crabgrass; [7]): 6
- Plant response rating, Crabgrass (crabgrass; [8]): 2
- Wheat plant response rating (wheat; [1]): 0
- Wheat plant response rating (wheat; [2]): 0
- Plant response rating, Wheat (wheat; [3]): 0
- Plant response rating, Wheat (wheat; [4]): 0
- Wheat plant response rating (wheat; [5]): 0
- Wheat plant response rating (wheat; [6]): 0
- Plant response rating, Wheat (wheat; [8]): 0

SMILES: COc1ccc(-n2c(=O)on(C(=O)N(c3ccc(F)cc3)C(C)C)c2=O)cc1 [Compound 5]
- B. signalgrass plant response rating (surinam grass; [1]): 0
- B. signalgrass plant response rating (surinam grass; [2]): 4
- Plant response rating, B. signalgrass (surinam grass; [3]): 3
- Plant response rating, B. signalgrass (surinam grass; [4]): 3
- B. signalgrass plant response rating (surinam grass; [5]): 3
- B. signalgrass plant response rating (surinam grass; [6]): 0
- B. signalgrass plant response rating (surinam grass; [7]): 0
- Plant response rating, B. signalgrass (surinam grass; [8]): 8
- Soybean plant response rating (soybean; [1]): 5
- Soybean plant response rating (soybean; [2]): 6
- Plant response rating, Soybean (soybean; [3]): 0
- Plant response rating, Soybean (soybean; [4]): 0
- Soybean plant response rating (soybean; [5]): 0
- Soybean plant response rating (soybean; [6]): 5
- Plant response rating, Soybean (soybean; [8]): 0
- Morningglory plant response rating (morningglory; [1]): 3
- Morningglory plant response rating (morningglory; [2]): 9
- Plant response rating, Morningglory (morningglory; [3]): 0
- Plant response rating, Morningglory (morningglory; [4]): 0
- Morningglory plant response rating (morningglory; [5]): 0
- Morningglory plant response rating (morningglory; [6]): 2
- Plant response rating, Morningglory (morningglory; [8]): 0
- Wild oats plant response rating (wild oat; [1]): 1
- Wild oats plant response rating (wild oat; [2]): 1
- Plant response rating, Wild oats (wild oat; [3]): 0
- Plant response rating, Wild oats (wild oat; [4]): 6
- Wild oats plant response rating (wild oat; [5]): 6
- Wild oats plant response rating (wild oat; [6]): 0
- Plant response rating, Wild oats (wild oat; [8]): 6
- Rape plant response rating (rape; [1]): 5
- Rape plant response rating (rape; [2]): 5
- Plant response rating, Rape (rape; [3]): 0
- Plant response rating, Rape (rape; [4]): 0
- Rape plant response rating (rape; [5]): 0
- Rape plant response rating (rape; [6]): 5
- Rape plant response rating (rape; [7]): 4
- Plant response rating, Rape (rape; [8]): 0
- Ducksalad plant response rating (duck salad; [2]): 0
- Ducksalad plant response rating (duck salad; [9]): 0
- Ducksalad plant response rating (duck salad; [10]): 0
- Ducksalad plant response rating (duck salad; [11]): 0
- Giant foxtail plant response rating (giant foxtail; [1]): 7
- Giant foxtail plant response rating (giant foxtail; [2]): 7
- Plant response rating, Giant foxtail (giant foxtail; [3]): 7
- Plant response rating, Giant foxtail (giant foxtail; [4]): 8
- Giant foxtail plant response rating (giant foxtail; [5]): 9
- Giant foxtail plant response rating (giant foxtail; [6]): 1
- Giant foxtail plant response rating (giant foxtail; [7]): 4
- Plant response rating, Giant foxtail (giant foxtail; [8]): 10
- Blackgrass plant response rating (blackgrass; [1]): 5
- Blackgrass plant response rating (blackgrass; [2]): 8
- Plant response rating, Blackgrass (blackgrass; [3]): 3
- Plant response rating, Blackgrass (blackgrass; [4]): 3
- Blackgrass plant response rating (blackgrass; [5]): 5
- Blackgrass plant response rating (blackgrass; [6]): 4
- Blackgrass plant response rating (blackgrass; [7]): 4
- Plant response rating, Blackgrass (blackgrass; [8]): 8
- Rice plant response rating (rice; [2]): 0
- Rice plant response rating (rice; [9]): 0
- Rice plant response rating (rice; [10]): 0
- Rice plant response rating (rice; [11]): 0
- Nutsedge plant response rating (purple nutsedge; [1]): 0
- Nutsedge plant response rating (purple nutsedge; [2]): 0
- Plant response rating, Nutsedge (purple nutsedge; [3]): 0
- Plant response rating, Nutsedge (purple nutsedge; [4]): 0
- Nutsedge plant response rating (purple nutsedge; [5]): 0
- Nutsedge plant response rating (purple nutsedge; [6]): 0
- Nutsedge plant response rating (purple nutsedge; [7]): 0
- Plant response rating, Nutsedge (purple nutsedge; [8]): 0
- Velvetleaf plant response rating (velvetleaf; [1]): 5
- Velvetleaf plant response rating (velvetleaf; [2]): 7
- Plant response rating, Velvetleaf (velvetleaf; [3]): 0
- Plant response rating, Velvetleaf (velvetleaf; [4]): 0
- Velvetleaf plant response rating (velvetleaf; [5]): 0
- Velvetleaf plant response rating (velvetleaf; [6]): 4
- Plant response rating, Velvetleaf (velvetleaf; [8]): 0
- S. Flatsedge plant response rating (smallflower flatsedge; [2]): 2
- S. Flatsedge plant response rating (smallflower flatsedge; [9]): 0
- S. Flatsedge plant response rating (smallflower flatsedge; [11]): 0
- Bedstraw plant response rating (bedstraw; [1]): 4
- Bedstraw plant response rating (bedstraw; [2]): 4
- Plant response rating, Bedstraw (bedstraw; [3]): 0
- Plant response rating, Bedstraw (bedstraw; [4]): 0
- Bedstraw plant response rating (bedstraw; [5]): 0
- Bedstraw plant response rating (bedstraw; [6]): 3
- Bedstraw plant response rating (bedstraw; [7]): 4
- Plant response rating, Bedstraw (bedstraw; [8]): 0
- Corn plant response rating (corn; [1]): 0
- Corn plant response rating (corn; [2]): 0
- Plant response rating, Corn (corn; [3]): 0
- Plant response rating, Corn (corn; [4]): 0
- Corn plant response rating (corn; [5]): 0
- Corn plant response rating (corn; [6]): 0
- Corn plant response rating (corn; [7]): 0
- Plant response rating, Corn (corn; [8]): 0
- Crabgrass plant response rating (crabgrass; [1]): 6
- Crabgrass plant response rating (crabgrass; [2]): 6
- Plant response rating, Crabgrass (crabgrass; [3]): 3
- Plant response rating, Crabgrass (crabgrass; [4]): 3
- Crabgrass plant response rating (crabgrass; [5]): 6
- Crabgrass plant response rating (crabgrass; [6]): 3
- Crabgrass plant response rating (crabgrass; [7]): 6
- Plant response rating, Crabgrass (crabgrass; [8]): 7
- Wheat plant response rating (wheat; [1]): 1
- Wheat plant response rating (wheat; [2]): 2
- Plant response rating, Wheat (wheat; [3]): 0
- Plant response rating, Wheat (wheat; [4]): 0
- Wheat plant response rating (wheat; [5]): 0
- Wheat plant response rating (wheat; [6]): 0
- Plant response rating, Wheat (wheat; [8]): 0
